Measured values from patent US4091006A, “Esters of 3-hydroxyindone compounds” (priority 1975, dated 1978).

Columns and labels:
[1] = tested on: egg of the two-spotted mite; assay: Mite Ovicide Test; type: in vivo, Tetranychus urticae (Koch); set-up: key to Mite Ova rating: 1: no mortality; 3: an approximately 50% mortality; 5: 100% mortality; settings: spray on eggs, 4 days
Description: (§1) The test procedures were as follows:
The plants were allowed to dry thoroughly.
(§2) Compositions were rated on the basis of percent kill with a rating of 1 indicating no mortality; 3 signifying an approximately 50% mortality and 5 indicating 100% mortality at the indicated dosage.

[2] = tested on: adults and nymphal stages of the two-spotted mite; assay: Mite Foliage Spray Test; type: in vivo, Tetranychus urticae (Koch); set-up: key: 1: no mortality; 3: an approximately 50% mortality; 5: 100% mortality; settings: 4 days
Description: as §1, §2

[3] = tested on: Perennial rye grass, crabgrass, red root pigweed, mustard; assay: Preliminary Herbicide Seed Germination Test; settings: each rated 1 (no injury) to 5 (no seedlings emerged)
[4] = rating/maximum 20: 100 ppm only, four species
[5] = rating/maximum 40: 100 and 1000 ppm, four species, 10-12 days
[6] = rating/maximum 15: 100 ppm only, crabgrass omitted
[7] = rating/maximum 30: 100 and 1000 ppm, crabgrass omitted

Row | Compound | Mite Ova rating [1] | Mite Adult rating [2] | Herbicide (total preemergence rating) [3, 4] | Herbicide (total preemergence rating) [3, 5] | Herbicide (total preemergence rating) [3, 6] | Herbicide (total preemergence rating) [3, 7]
1 | COc1cccc(OC)c1C(=O)OC1=C(c2c(C)cc(C)cc2C)C(=O)c2ccccc21 [3-(2,6-Dimethoxybenzoyloxy)-2-(2',4',6'-trimethylphenyl)indone] | 1 | 1 | 4/20 |  |  | 
2 | O=C(OC1=C(c2c(Cl)cccc2Cl)C(=O)c2ccccc21)c1ccccc1 [3-(Benzoyloxy)-2-(2',6'-dichlorophenyl)indone] | 5 (100% mortality) | 5 (100% mortality) |  | 32/40 |  | 
3 | CCCCC(CC)C(=O)OC1=C(c2ccccc2)C(=O)c2ccccc21 (stereo not drawn) [3-(2-Ethylhexanoyloxy)-2-phenylindone] | 1 | 1 | 4/20 |  |  | 
4 | O=C(OC1=C(c2c(Cl)cccc2Cl)C(=O)c2ccccc21)c1ccc(Cl)c(Cl)c1 [3-(3,4-Dichlorobenzoyloxy)-2-(2',6'-dichlorophenyl)indone] | 5 (100% mortality) | 5 (100% mortality) |  | 29/40 |  | 
5 | CCc1cccc(CC)c1C1=C(OC(=O)C(C)(C)C)c2ccccc2C1=O [2-(2',6'-Diethylphenyl)-3-(pivaloyloxy)indone] | 5 (100% mortality) | 5 (100% mortality) |  |  | 12/15 | 
6 | CCCCC(CC)C(=O)OC1=C(c2ccccc2C)C(=O)c2ccccc21 (stereo not drawn) [3-(2-Ethylhexanoyloxy)-2-(2'-methylphenyl)indone] | 5 (100% mortality) | 3 (an approximately 50% mortality) | 4/20 |  |  | 
7 | O=C(OC1=C(c2c(Cl)cccc2Cl)C(=O)c2ccccc21)c1cc(Cl)cc(Cl)c1 [3-(3,5-Dichlorobenzoyloxy)-2-(2',6'-dichlorophenyl)indone] | 5 (100% mortality) | 5 (100% mortality) |  |  |  | 24/30
8 | Cc1cc(C)c(C2=C(OC(=O)c3cc(Cl)cc(Cl)c3)c3ccccc3C2=O)c(C)c1 [3-(3,5-Dichlorobenzoyloxy)-2-(2',4',6'-trimethylphenyl)indone] | 5 (100% mortality) | 5 (100% mortality) |  |  |  | 23/30
9 | Cc1cc(C)c(C2=C(OC(=O)c3ccccc3)c3ccccc3C2=O)c(C)c1 [3-Benzoxyloxy-2-(2',4',6'-trimethylphenyl)indone] | 5 (100% mortality) | 5 (100% mortality) |  | 31/40 |  | 
10 | CC(=O)OC1=C(c2ccccc2)C(=O)c2ccccc21 [2-Phenyl-3-(acetoxy)indone] | 1 | 1 |  | 8/40 |  | 
11 | Cc1cc(C)c(C2=C(OC(=O)c3cccc([N+](=O)[O-])c3)c3ccccc3C2=O)c(C)c1 [3-(3-Nitrobenzoyloxy)-2-(2',4',6'-trimethylphenyl)indone] | 5 (100% mortality) | 5 (100% mortality) |  |  |  | 28/30
12 | CCCCC(=O)OC1=C(c2c(C)cc(C)cc2C)C(=O)c2ccccc21 [2-(2',4',6'-Trimethylphenyl)-3-(pentanoyloxy)indone] | 5 (100% mortality) | 5 (100% mortality) |  |  | 15/15 | 
13 | 2-(2',6'-Dichlorophenyl)-5(6)-methyl-3-(pivaloyloxy)indone | 5 (100% mortality) | 5 (100% mortality) |  | 24/40 |  | 
14 | CCCCCCCCCCCCCCCC(=O)OC1=C(c2ccc(C(C)C)cc2)C(=O)c2ccccc21 [2-(4'-isopropylphenyl)-3-(palmitoyloxy)indone] | 1 | 1 | 4/20 |  |  | 
15 | O=C(OC1=C(c2ccccc2)C(=O)c2ccccc21)c1ccccc1 [2-Phenyl-3-(benzoyloxy)indone] | 1 | 1 | 4/20 |  |  | 
16 | COc1cc(C)c(C2=C(OC(=O)C(C)(C)C)c3ccccc3C2=O)c(C)c1 [2-(2',6'-Dimethyl-4'-methoxyphenyl)-3-(pivaloyloxy)indone] | 3 (an approximately 50% mortality) | 3 (an approximately 50% mortality) |  | 24/40 |  | 
17 | COc1cc(C)c(C)c(C)c1C1=C(OC(=O)C(C)(C)C)c2ccccc2C1=O [3-(Pivaloyloxy)-2-(6'-methoxy-2',3',4'-trimethylphenyl)indone] | 1 | 1 |  | 16/40 |  | 
18 | CC(C)(C)C(=O)OC1=C(c2ccccc2C(F)(F)F)C(=O)c2ccccc21 [2-(2'-Trifluoromethylphenyl)-3-pivaloyloxy indone] | 1 | 1 | 4/20 |  |  | 
19 | CC(C)(C)C(=O)OC1=C(c2ccc(Cl)cc2)C(=O)c2ccccc21 [2-(4'-Chlorophenyl)-3-(pivaloyloxy)indone] | 1 | 1 | 4/20 |  |  | 
20 | COc1cccc(C(=O)OC2=C(c3c(Cl)cccc3Cl)C(=O)c3ccccc32)c1 [3-(3-Methoxybenzoyloxy)-2-(2',6'-dichlorophenyl)indone] | 5 (100% mortality) | 5 (100% mortality) |  |  |  | 23/30
21 | CCCCN(CCCC)C(=O)OC1=C(c2c(C)cc(C)cc2C)C(=O)c2ccccc21 [2-(2',4',6'-Trimethylphenyl)-3-(N,N-di(butyl)carbamoyloxy)indone] | 1 | 3 (an approximately 50% mortality) | 10/20 |  |  | 
22 | COc1ccc(C(=O)OC2=C(c3c(C)cc(C)cc3C)C(=O)c3ccccc32)cc1 [3-(4-Methoxybenzoyloxy)-2-(2',4',6'-trimethylphenyl)indone] | 5 (100% mortality) | 3 (an approximately 50% mortality) |  |  |  | 21/30
23 | CCCCCCCCCCCC(=O)OC1=C(c2c(C)cc(C)cc2C)C(=O)c2ccccc21 [2-(2',4',6'-Trimethylphenyl)-3-(dodecanoyloxy)indone] | 5 (100% mortality) | 5 (100% mortality) | 17/20 |  |  | 
24 | Cc1cc(C)c(NC(=O)OC2=C(c3c(C)cc(C)cc3C)C(=O)c3ccccc32)c(C)c1 [2-(2',4',6'-Trimethylphenyl)-3-(N-(2,4,6-Trimethylphenyl)-carbamoyloxy)indone] | 5 (100% mortality) | 5 (100% mortality) | 4/20 |  |  | 
25 | O=C1C(c2c(Cl)cccc2Cl)=C(OC(=O)c2c(Cl)ccc(Cl)c2Cl)c2ccccc21 [3-(2,3,6-Trichlorobenzoyloxy)-2-(2',6'-dichlorophenyl)indone] | 5 (100% mortality) | 5 (100% mortality) |  | 20/40 |  | 
26 | CCCCCCCCOC(=O)OC1=C(c2c(C)cc(C)cc2C)C(=O)c2ccccc21 [2-(2',4',6'-Trimethylphenyl)-3-(octyloxycarbonyloxy)indone] | 5 (100% mortality) | 5 (100% mortality) | 16/20 |  |  | 
27 | 2-(2',6'-Dichlorophenyl)-4(7)-methyl-3-(pivaloxyloxy)indone | 3 (an approximately 50% mortality) | 1 |  | 20/40 |  | 
28 | Cc1ccccc1C(=O)OC1=C(c2c(Cl)cccc2Cl)C(=O)c2ccccc21 [3-(2-Methylbenzoyloxy)-2-(2',6'-dichlorophenyl)indone] | 5 (100% mortality) | 5 (100% mortality) |  | 31/40 |  | 
29 | Cc1cc(C)c(C2=C(OC(=O)N(C)C3CCCCC3)c3ccccc3C2=O)c(C)c1 [2-(2',4',6'-Trimethylphenyl)-3-(N-cyclohexyl-N-methylcarbamoyloxy)indone] | 5 (100% mortality) | 5 (100% mortality) | 16/20 |  |  | 
